From patent US20100273748A1, “ANTIMICROBIAL THERAPY” (priority 2006, published 2010)

Experiments:
[1] = Topical treatment of healthy volunteers' skin, clinical and histological inflammation; type: in vivo, human; settings: single topical application of 1,25D3
Experimental: Patients and treatments. Human skin wounds were collected following informed consent by inducing 5 mm full-thickness wounds in volunteers (n=5) under aseptic conditions with local anesthesia as described. At 24 hours after incision, 4 mm punch biopsies were taken from the site of injury and immediately fixed in formalin for immunostaining or frozen in liquid N2 for subsequent RNA isolation. Intact skin from healthy volunteers served as control (n=4). To examine the effects of topical 1,25D3, healthy skin of volunteers (n=7) was treated once topically with 1,25D3 (1.0 mM) and left under occlusion for 4 days. Vehicle treated contralateral skin served as a control. After treatment, skin biopsies were obtained from both sites, fixed in formalin 10% and embedded in paraffin for immunostaining. All treatments and sample acquisitions, including skin biopsies, were approved by the committees on investigations involving human subjects.

[2] = test system: Other TLRs and the TLR coreceptor CD36; assay: qPCR of other TLRs and CD36 in cultured keratinocytes; type: cell-based; settings: cultured human keratinocytes exposed to 1,25D3
Experimental: Cell culture and stimuli. Human keratinocytes were grown in serum-free EpiLife® cell culture media (Cascade Biologics; Portland, Oreg.) containing 0.06 mM Ca2+ and 1× EpiLife® defined growth supplement (EDGS) at 37° C. under standard tissue culture conditions. Stock cultures were maintained for up to five passages in this media with the addition of 50 U/mL penicillin and 50 μg/mL streptomycin. HaCaT keratinocytes were cultured in DMEM (Sigma, St. Louis, Mo.) with 10% FCS. Cells at 50-70% confluence were stimulated in fresh medium after preincubation with 1,25(OH)2 vitamin D3 (1,25D3; 0.1-100 nM, 4-24 h; Sigma). Alternatively, NHEK were stimulated in the presence of 1,25D3 (0.1-100 nM). […]
Real-time RT-PCR (qPCR). […] Expression of cathelicidin and GAPDH was analysed by real-time RT-PCR. […] Fold induction relative to the vehicle treated control in in vitro experiments was calculated using the comparative Ct method, where ΔΔCt is ΔCt(stimulant)-ΔCt(vehicle), ΔCt is Ct(gene)-Ct(GAPDH) and Ct is the cycle at which an arbitrary detection threshold is crossed. For quantification of transcript abundance in tissue samples target gene expression was normalized to GAPDH and compared to non-treated or non-injured skin.

CD14 protein = assay: Western blot of keratinocyte extracts; type: cell-based, human
Experimental: Western Blot. […] After centrifugation, equal amounts of protein were mixed with loading buffer (0.25M Tris HCL, 10% SDS, 10% glycerol, 5% β-mercaptoethanol) and loaded onto a 10% Tris-Tricine gel (GeneMate, Kaysville, Utah). After separation, proteins were blotted onto a PVDF membrane (Millipore, Billerica, Mass.) and blocked in 5% milk (BioRad) in TBS 0.1% Tween20 for 1 h at RT. After washings in TBS 0.1% Tween20, membranes were stained with a rabbit polyclonal anti-CD14 (Abcam, Cambridge, Mass.) or an anti TLR2 antibody (eBioscience), washed again in TBS 0.1% Tween20 and reprobed with a HRP-coupled goat anti-rabbit antibody (DakoCytomation, Glostrup, Denmark). Stained protein was visualized using the Western Lightning® system (Perkin Elmer, Boston, Mass.).

cathelicidin = assay: Cathelicidin protein immunostaining in NHEK; type: cell-based, human; settings: butyrate (2 mM) and 1,25D3 (10^−8M), 24 hours
Experimental: Panel a: NHEKs were stimulated with 1,25D3 (10^−9-10^−7 M) in the presence of the HDAC inhibitor butyrate (BUT; 2 mM) for 24 hours. mRNA abundance was determined by real-time qPCR for cathelicidin and glyceraldehyde-3-phosphate dehydrogenase and normalized to vehicle-treated controls. […] Data shown are means (7SD) of the results from a single stimulation experiment performed in triplicates and are representative of at least three independent experiments (**P<0.01; ***P<0.001; two-way analysis of variance). Panel b: The HDAC inhibitor TSA (200 ng ml^−1) induces cathelicidin in the presence of 1,25D3 (10^−8M). Expression of cathelicidin is dependent on a functional VDR, as pretreatment with the VDR antagonist ZK159222 (10^−7 M) inhibits induction of cathelicidin with BUT (2 mM) in the presence of 1,25D3 (10^−8 M) after 24 hours. Expression of cathelicidin was determined by qPCR as described in Panel a. (*P<0.05; Student's t-test). […] Cells were stained with a polyclonal anti-LL-37 antibody (followed by an FITC-coupled secondary antibody) and nuclei detected with 4,6-diamidino-2-phenylindole (Bar=30 μM). […] NHEKs were stimulated with 1,25D3 (10^−8M) in combination with the HDAC inhibitor BUT (2 mM) for 24 hours, cells harvested and cell lysates co-incubated with S. aureus DmprF, and bacterial growth monitored over time to determine antimicrobial activity. […]

C=C1/C(=C\C=C2/CCC[C@]3(C)[C@@H]([C@H](C)CCCC(C)(C)O)CC[C@@H]23)C[C@@H](O)C[C@@H]1O [1,25D3, 1,25(OH)2 vitamin D3]
clinical or histological evidence of inflammation [1]: did not induce clinical or histological evidence of inflammation
expression of other TLRs and CD36 [2]: remained unchanged
CD14 protein expression (Western blot) (CD14 protein; 1,25D3 100 nM, monolayer keratinocyte extracts): increases expression
CD14 protein expression (Western blot) (CD14 protein; 1,25D3 10^−8M and butyrate 2 mM, 24 hours): increase in CD14 protein expression
cathelicidin peptide expression (immunostaining) (cathelicidin): increase in cathelicidin peptide expression
